Patent US12590093B2, “Indolo[2′,3′:3,4]pyrido[2,1-b]quinazoline compound and use thereof” (INSTITUTE OF MEDICINAL BIOTECHNOLOGY CHINESE ACADEMY OF …, priority 2019, dated 2026)

Legend:
LXRα = target: T1, LXRα (Homo sapiens, UniProt Q13133); assay: Nuclear receptor reporter gene transient transfection (pBIND-hLXRs-LBD) in HepG2 cells, LXRα; type: cell-based; settings: for LXRα max: HepG2 cells, reporter gene, 18-24 h; for LXRα agonist activity: result in words
T1 construct: expressed in transfected cells; host or cells: HepG2
T1 sequence (Q13133 209-447 limits assumed): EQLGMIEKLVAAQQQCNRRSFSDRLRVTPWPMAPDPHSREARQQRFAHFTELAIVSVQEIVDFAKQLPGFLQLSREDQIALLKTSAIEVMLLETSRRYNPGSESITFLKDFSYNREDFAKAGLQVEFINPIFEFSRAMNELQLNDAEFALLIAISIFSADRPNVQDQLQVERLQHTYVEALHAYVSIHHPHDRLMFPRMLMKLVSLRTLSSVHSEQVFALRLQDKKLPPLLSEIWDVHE
Procedure: (§1) HepG2 cells in logarithmic growth phase were digested, seeded into the white/clear 96-well plate at a density of 5×10^4 cells/well/100 μL until the cells grew to about 90% confluence and in good condition. 0.5 μL liposome (Lipofectamine® 2000) diluted with blank medium to 25 μL per well and incubated at room temperature for 5 min. The corresponding plasmids DNA (nuclear receptor plasmid:Gal4=1:10) were diluted in blank DMEM medium to 25 μL/well (mixing of two plasmids), then mixed evenly with the diluted liposome, and incubated for 20 min at 37° C. The DNA-liposome complex (50 μL per well) was added with the DMEM complete medium (100 μL per well) and mixed thoroughly to obtain a DNA-liposome complex cell culture. The cell medium was discarded, and replaced with the DNA-liposome complex cell culture (150 μL/well) (37° C., 5% CO2). After 6 h, the DNA-liposome complex cell culture medium was discarded, and 200 μL serum-free DMEM medium containing the compound at an appropriate concentration was added to each test well, and cultured for 18-24 h. The cell Luciferase activity was measured by the method as described in the Luciferase Assay System.

LXRβ = target: T2, LXRβ (Homo sapiens, UniProt P55055); assay: Nuclear receptor reporter gene transient transfection (pBIND-hLXRs-LBD) in HepG2 cells, LXRβ; type: cell-based; settings: for LXRβ max: HepG2 cells, reporter gene, 18-24 h; for LXRβ agonist activity: result in words
T2 construct: expressed in transfected cells; host or cells: HepG2
T2 sequence (P55055 222-460 limits assumed): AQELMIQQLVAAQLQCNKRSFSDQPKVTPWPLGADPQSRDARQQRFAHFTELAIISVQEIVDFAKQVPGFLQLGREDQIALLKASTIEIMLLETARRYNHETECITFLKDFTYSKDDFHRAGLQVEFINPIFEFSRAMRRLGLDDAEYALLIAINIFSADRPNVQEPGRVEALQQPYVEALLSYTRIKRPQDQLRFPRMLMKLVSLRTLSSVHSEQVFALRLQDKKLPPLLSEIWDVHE
Procedure: as §1

ABCA1 = ABCA1 up-regulation, luciferase reporter in ABCA1P-LUC HepG2 cells; type: cell-based; settings: Homo sapiens, 18 h, maximum up-regulation fold of luciferase activity versus DMSO, read-out: ABCA1 max
Procedure: (§2) Experiments were conducted to detect whether the compounds of the disclosure can pharmacologically up-regulate the expression of ABCA1 and SR-BI. Firstly, ABCA1P-LUC HepG2 cells or SR-BI-LUC HepG2 cells in logarithmic growth phase were digested, diluted in cell culture medium, and counted. Cells were seeded into 96-well plates at a density of 5×10^5/ml (100 μL of the single-cell suspension per well). After cells fully adhered (about 6 h), the medium containing 10% FBS was removed, and the cells were gently washed with PBS. Serum free MEM-EBSS medium (200 μL per test well) and 2 μL of the compounds to be tested (at a final concentration of 10 μg/mL) were added to each test well, and meanwhile, DMSO at a corresponding concentration was added to the control well. After 18-24 h, the medium was removed. Cell Luciferase activity was measured by a method as described in the Luciferase Assay System. By optimizing the final concentration of DMSO, the treatment time of the compounds on the cells and the number of cells seeded into each well during the screening, the final screening conditions were determined as follows: each well is seeded with 5×10^4 cells, DMSO is added at a final concentration of 1%, and the sample is treated for 18 h.
(§3) The ratio of change of luciferase activity is calculated with the following formula: Ratio of change (%)=A/B×100;
(§4) wherein A is the luciferase activity (RLU) measured after the compound to be tested is added, and B is the luciferase activity (RLU) measured after the blank control (DMSO) is added. The luciferase activity of cells in each well was measured, and the dose-effect relationship between the concentration of the compound and the ratio of change of the luciferase activity was determined to calculate the EC50.

SR-BI = SR-BI up-regulation, luciferase reporter in SR-BI-LUC HepG2 cells; type: cell-based; settings: Homo sapiens, 18 h, maximum up-regulation of luciferase activity versus DMSO, read-out: SR-BI max
Procedure: as §2, §3, §4

[1] = background statement; cited from earlier work

| SMILES | LXRα max (LXRα) | LXRα agonist activity (LXRα) | LXRβ max (LXRβ) | LXRβ agonist activity (LXRβ) | maximal fold induction (ABCA1) | maximal fold induction (SR-BI) | oral bioavailability [1] |
| --- | --- | --- | --- | --- | --- | --- | --- |
| O=c1c2ccccc2nc2c3[nH]c4ccccc4c3ccn12 [TR4, indolo[2′,3′:3,4]pyrido[2,1-b]quinazolin-5(13H)-one] | 1.84 | showed agonist activity | 1.88 | showed agonist activity | 1.84 | 1.74 |  |
| Cc1cccc2c3c([nH]c12)-c1nc2ncccc2c(=O)n1CC3 [TR12, 12-methyl-8,13-dihydropyrido[2″,3″: 4′,5′]pyrimido[1′,2′:1,2]pyrido[3,4-b]indol-5(7H)-one] |  |  |  |  | 1.51 | 1.44 |  |
| O=c1c2ccccc2nc2n1CCc1c-2[nH]c2ccccc12 [RUT, Rutaecarpine, reference compound] |  |  |  |  | 2.09 | 2.12 | very low |
| O=c1c2ccccc2nc2n1CCc1c-2[nH]c2c(Cl)cccc12 [TR10, 12-chloro-8,13-dihydroindolo[2′,3′:3,4]pyrido[2,1-b]quinazolin-5(7H)-one] |  |  |  |  | 1.43 | 1.72 |  |
| O=c1c2cccnc2nc2n1CCc1c-2[nH]c2ccc(Cl)cc12 [TR14, 10-chloro-8,13-dihydropyrido[2″,3″: 4′,5′]pyrimido[1′,2′:1,2]pyrido[3,4-b]indol-5(7H)-one] |  |  |  |  | 1.48 | 1.57 |  |
| O=C1c2ccccc2OC2c3[nH]c4ccccc4c3CCN12 (stereo not shown) [TY4, 7,8,13,13b-tetrahydro-5H-benzo[5′,6′][1,3]oxazino[3′,2′:1,2]pyrido[3,4-13]indol-5-one] |  |  |  |  | 1.5 | 1.22 |  |
| c1ccc2c(c1)CN1CCc3c([nH]c4ccccc34)C1N2 (stereo not shown) [TR2, 5,7,8,13,13b,14-hexahydroindolo[2′,3′:3,4]pyrido[2,1-b]quinazoline] |  |  |  |  | 1.66 | 1.76 |  |
| O=c1c2ccccc2cc2n1CCc1c-2[nH]c2ccccc12 [TY3, 8,13-dihydroindolo[2′,3′:3,4]pyrido[1,2-b]isoquinolin-5(7H)-one] |  |  |  |  | 1.97 | 1.41 |  |
| O=c1c2cccnc2nc2n1CCc1c-2[nH]c2c(F)cccc12 [TR13, 12-fluoro-8,13-dihydropyrido[2″,3″:4′,5′]pyrimido[1′,2′:1,2]pyrido[3,4-b]indol-5(7H)-one] |  |  |  |  | 1.54 | 1.72 |  |
| O=C1c2ccccc2N(C(=O)C(F)(F)F)C2c3[nH]c4ccccc4c3CCN12 (stereo not shown) [TR6, 14-(2,2,2-trifluoroacetyl)-8,13,13b,14-tetrahydroindolo[2′,3′:3,4]pyrido[2,1-b]quinazolin-5(7H)-one] | 2.03 | showed agonist activity | 1.69 | showed agonist activity | 1.96 | 1.56 |  |
| O=c1c2cccnc2nc2n1CCc1c-2[nH]c2c(Cl)cccc12 [TR11, 12-chloro-8,13-dihydropyrido[2″,3″:4′,5′]pyrimido[1′,2′:1,2]pyrido[3,4-b]indol-5(7H)-one] |  |  |  |  | 1.57 | 1.68 |  |
